Test results published in PubChem BioAssay (NCI).
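These data come from cells grown in 96-well plates and exposed to compound for 48 hours at five concentrations. Abbreviation: GI50, concentration required for 50% inhibition of growth. TGI: total growth inhibition.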

Tested on: A549 NSCLC
Assay: NCI tumour cell line growth inhibition, 48 h

`COc1ccc(NC2Oc3cc4c(cc3C(c3cc(OC)c(OC)c(OC)c3)C2C)OCO4)cc1` (stereo not drawn) and `COc1cc([C@@H]2c3cc4c(cc3C[C@H]3COC(=O)[C@@H]32)OCO4)cc(OC)c1OC` cannot be ordered by TGI: greater than 61.9 µM for the first, greater than 50 µM for the second.

`Cc1ccc(C2=Nc3c(c(C)nn3-c3ccccc3)N=C(C(=O)O)C2)cc1` and `Cc1cc2cccc(Cl)c2nc1C(=O)c1ccccc1` cannot be ordered by TGI: greater than 10 µM for the first, greater than 100 µM for the second.

`O=C(OCc1ccccc1)OOC(=O)OCc1ccccc1` and `c1ccc(N=c2snc(-c3ccccc3)s2)cc1` cannot be ordered by TGI: greater than 100 µM for the first, greater than 100 µM for the second.

`Cc1ccc(C(=O)Nc2ccc(CP(=O)(O)O)cc2)cc1NC(=O)c1cccc(NC(=O)Nc2cccc(C(=O)Nc3cc(C(=O)Nc4ccc(CP(=O)(O)O)cc4)ccc3C)c2)c1` and `O=C(O[C@H](/C=C/c1ccccc1)P1(=O)N(Cc2ccccc2)[C@@H]2CCCC[C@H]2N1Cc1ccccc1)c1ccccc1` cannot be ordered by TGI: greater than 100 µM for the first, greater than 100 µM for the second.

`OCc1ccccc1C1CSCSC1` and `c1ccc2c(c1)CCCN1CCc3ccccc3C21` (stereo not drawn) cannot be ordered by TGI: greater than 100 µM for the first, greater than 100 µM for the second.

`CC(C)c1c(P(=O)(c2ccccc2)c2ccccc2)n(C)c2ccccc12` and `CN(C)c1ccc(/C(Br)=C2\OC(=O)c3ccccc32)cc1` cannot be ordered by TGI: greater than 100 µM for the first, greater than 100 µM for the second.

`CC(C)/C(Cl)=N\OC(=O)NNc1ccccc1` and `CC(=O)Nc1ccc(Cl)c(Cl)c1` cannot be ordered by TGI: greater than 100 µM for the first, greater than 100 µM for the second.

`O=C(/C=C/c1cccs1)c1ccc(Cl)cc1` and `CN1CCN(C(=S)N(C)C(=O)c2ccc(Cl)cc2)CC1` cannot be ordered by TGI: greater than 100 µM for the first, greater than 100 µM for the second.

`Cc1oc2nc(N(C)C)n3nnnc3c2c1C` and `CC(=O)CC(=O)c1cc2c(=O)oc(C)cc2oc1=O` cannot be ordered by TGI: greater than 100 µM for the first, greater than 37.5 µM for the second.

First: COc1ccc(CNc2nc3ccc(C(F)(F)F)cc3nc2-c2ccccc2)cc1OC
Second: COc1cccc(C2c3cc4c(cc3OC(N3CCCC3)C2C)OCO4)c1OC (stereo not drawn)
The TGI of the first is higher: greater than 100 µM for the first, 25.5 µM for the second.

`O=C(CCc1ccc(O)cc1)c1c(O)cc(O)cc1OC1OC(CO)C(O)C(O)C1O` (stereo not drawn) and `Cc1cc(O)cc(O)c1N=Nc1ccc([N+](=O)[O-])cc1` cannot be ordered by TGI: greater than 100 µM for the first, greater than 100 µM for the second.

Compared with `COc1cc2c(cc1OC)C(=O)/C(=C/c1cc(C)c(O)c(C)c1)C2`, `COC1C=CC23c4cc5c(cc4C(O)OC2CN(C)C3C1)OCO5` (stereo not drawn) is lower in TGI: greater than 100 µM for the first, 9.49 µM for the second.

`CC(C)=CC1C(C(=O)O)C1(C)C` (stereo not drawn) and `O=C(O)CNC(=O)c1ccc([As](=O)(O)O)cc1` cannot be ordered by TGI: greater than 750 µM for the first, greater than 100 µM for the second.

Compared with `O=C1NC(=S)NC(=O)C1C(c1ccccc1[N+](=O)[O-])C1C(=O)NC(=S)NC1=O`, `C=CCCCC12CCCc3cccc(c31)NC2=O` (stereo not drawn) is lower in TGI: greater than 100 µM for the first, 51.2 µM for the second.

Going from `C[C@]12CC/C(=N\O)C=C1CC[C@@H]1[C@@H]2CC[C@]2(C)C(=N/O)/C(=C/c3cccnc3)C[C@@H]12` to `C[C@@H]1C[C@H](O)[C@]2(O)O[C@@H]3C[C@@]4(C=O)[C@@H](CC=C5[C@@H]4CC[C@]4(C)[C@@H](C6=CC(=O)OC6)CC[C@]54O)C[C@H]3O[C@@H]2O1`, the TGI falls from 59.8 µM to 0.097 µM (620-fold).

`CC(C)(CO)N1C(=O)c2ccccc2C1(O)c1ccc(Cl)cc1` (stereo not drawn) and `Cc1cccc(N(CCC#N)S(=O)(=O)c2ccccc2)c1` cannot be ordered by TGI: greater than 100 µM for the first, greater than 100 µM for the second.

For `COc1cc([C@@H]2c3cc4c(cc3C[C@H]3COC(=O)[C@@H]32)OCO4)cc(OC)c1OC`, the GI50 was 0.00375 µM.

Tested on: CAKI-1 renal
Assay: NCI tumour cell line growth inhibition, 48 h

Going from `COc1ccc(NC2Oc3cc4c(cc3C(c3cc(OC)c(OC)c(OC)c3)C2C)OCO4)cc1` (stereo not drawn) to `COc1cc([C@@H]2c3cc4c(cc3C[C@H]3COC(=O)[C@@H]32)OCO4)cc(OC)c1OC`, the TGI falls from greater than 91.5 µM to 1.72 µM.

`Cc1ccc(C2=Nc3c(c(C)nn3-c3ccccc3)N=C(C(=O)O)C2)cc1` and `Cc1cc2cccc(Cl)c2nc1C(=O)c1ccccc1` cannot be ordered by TGI: greater than 10 µM for the first, greater than 100 µM for the second.

`O=C(OCc1ccccc1)OOC(=O)OCc1ccccc1` and `c1ccc(N=c2snc(-c3ccccc3)s2)cc1` cannot be ordered by TGI: greater than 100 µM for the first, greater than 100 µM for the second.

First: Cc1ccc(C(=O)Nc2ccc(CP(=O)(O)O)cc2)cc1NC(=O)c1cccc(NC(=O)Nc2cccc(C(=O)Nc3cc(C(=O)Nc4ccc(CP(=O)(O)O)cc4)ccc3C)c2)c1
Second: O=C(O[C@H](/C=C/c1ccccc1)P1(=O)N(Cc2ccccc2)[C@@H]2CCCC[C@H]2N1Cc1ccccc1)c1ccccc1
The TGI of the first is higher: greater than 100 µM for the first, 6.93 µM for the second.

First: CC(C)/C(Cl)=N\OC(=O)NNc1ccccc1
Second: CC(C)(CO)N1C(=O)c2ccccc2C1(O)c1ccc(Cl)cc1 (stereo not drawn)
The TGI of the first is lower: 28.2 µM for the first, greater than 100 µM for the second.

`Cc1oc2nc(N(C)C)n3nnnc3c2c1C` and `CN(C)c1ccc(/C(Br)=C2\OC(=O)c3ccccc32)cc1` cannot be ordered by TGI: greater than 100 µM for the first, greater than 100 µM for the second.

Going from `c1ccc2c(c1)CCCN1CCc3ccccc3C21` (stereo not drawn) to `COc1cccc(C2c3cc4c(cc3OC(N3CCCC3)C2C)OCO4)c1OC` (stereo not drawn), the TGI falls from greater than 100 µM to 3.15 µM.

`CC(=O)CC(=O)c1cc2c(=O)oc(C)cc2oc1=O` and `Cc1cc(O)cc(O)c1N=Nc1ccc([N+](=O)[O-])cc1` cannot be ordered by TGI: greater than 37.5 µM for the first, 38.9 µM for the second.

`O=C(CCc1ccc(O)cc1)c1c(O)cc(O)cc1OC1OC(CO)C(O)C(O)C1O` (stereo not drawn) and `O=C(O)CNC(=O)c1ccc([As](=O)(O)O)cc1` cannot be ordered by TGI: greater than 100 µM for the first, greater than 100 µM for the second.

First: COc1cc2c(cc1OC)C(=O)/C(=C/c1cc(C)c(O)c(C)c1)C2
Second: COC1C=CC23c4cc5c(cc4C(O)OC2CN(C)C3C1)OCO5 (stereo not drawn)
The TGI of the first is higher: greater than 100 µM for the first, 24.8 µM for the second.

Going from `CC(C)=CC1C(C(=O)O)C1(C)C` (stereo not drawn) to `C[C@@H]1C[C@H](O)[C@]2(O)O[C@@H]3C[C@@]4(C=O)[C@@H](CC=C5[C@@H]4CC[C@]4(C)[C@@H](C6=CC(=O)OC6)CC[C@]54O)C[C@H]3O[C@@H]2O1`, the TGI falls from greater than 750 µM to 0.0722 µM.

`O=C1NC(=S)NC(=O)C1C(c1ccccc1[N+](=O)[O-])C1C(=O)NC(=S)NC1=O` and `Cc1cccc(N(CCC#N)S(=O)(=O)c2ccccc2)c1` cannot be ordered by TGI: greater than 100 µM for the first, greater than 100 µM for the second.

`COc1cc([C@@H]2c3cc4c(cc3C[C@H]3COC(=O)[C@@H]32)OCO4)cc(OC)c1OC` gave a GI50 of 0.00463 µM.

Tested on: COLO 205 colon
Assay: NCI tumour cell line growth inhibition, 48 h

Compared with `COc1ccc(NC2Oc3cc4c(cc3C(c3cc(OC)c(OC)c(OC)c3)C2C)OCO4)cc1` (stereo not drawn), `COc1cccc(C2c3cc4c(cc3OC(N3CCCC3)C2C)OCO4)c1OC` (stereo not drawn) is 6.6-fold higher in TGI: 2.96 µM for the first, 19.4 µM for the second.

`Cc1ccc(C2=Nc3c(c(C)nn3-c3ccccc3)N=C(C(=O)O)C2)cc1` and `Cc1cc2cccc(Cl)c2nc1C(=O)c1ccccc1` cannot be ordered by TGI: greater than 10 µM for the first, greater than 100 µM for the second.

`O=C(OCc1ccccc1)OOC(=O)OCc1ccccc1` and `c1ccc(N=c2snc(-c3ccccc3)s2)cc1` cannot be ordered by TGI: greater than 100 µM for the first, greater than 100 µM for the second.

`Cc1ccc(C(=O)Nc2ccc(CP(=O)(O)O)cc2)cc1NC(=O)c1cccc(NC(=O)Nc2cccc(C(=O)Nc3cc(C(=O)Nc4ccc(CP(=O)(O)O)cc4)ccc3C)c2)c1` and `CC(C)c1c(P(=O)(c2ccccc2)c2ccccc2)n(C)c2ccccc12` cannot be ordered by TGI: greater than 100 µM for the first, greater than 100 µM for the second.

Compared with `CC(C)/C(Cl)=N\OC(=O)NNc1ccccc1`, `CC(=O)Nc1ccc(Cl)c(Cl)c1` is higher in TGI: 1.63 µM for the first, greater than 100 µM for the second.

`O=C(/C=C/c1cccs1)c1ccc(Cl)cc1` and `CN1CCN(C(=S)N(C)C(=O)c2ccc(Cl)cc2)CC1` cannot be ordered by TGI: greater than 100 µM for the first, greater than 100 µM for the second.

`Cc1oc2nc(N(C)C)n3nnnc3c2c1C` and `CN(C)c1ccc(/C(Br)=C2\OC(=O)c3ccccc32)cc1` cannot be ordered by TGI: greater than 100 µM for the first, greater than 100 µM for the second.

`c1ccc2c(c1)CCCN1CCc3ccccc3C21` (stereo not drawn) and `COc1ccc(CNc2nc3ccc(C(F)(F)F)cc3nc2-c2ccccc2)cc1OC` cannot be ordered by TGI: greater than 100 µM for the first, greater than 100 µM for the second.

`CC(=O)CC(=O)c1cc2c(=O)oc(C)cc2oc1=O` and `COc1cc2c(cc1OC)C(=O)/C(=C/c1cc(C)c(O)c(C)c1)C2` cannot be ordered by TGI: greater than 37.5 µM for the first, greater than 100 µM for the second.

`O=C(CCc1ccc(O)cc1)c1c(O)cc(O)cc1OC1OC(CO)C(O)C(O)C1O` (stereo not drawn) and `CC(C)=CC1C(C(=O)O)C1(C)C` (stereo not drawn) cannot be ordered by TGI: greater than 100 µM for the first, greater than 750 µM for the second.
